Test results from ChEMBL document CHEMBL1201862, “PubChem BioAssay data set” (2004).
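Five compound concentrations were applied to cells in 96-well plates for 48 hours; endpoints were derived by simple linear interpolation of the resulting dose-response curve. Here, GI50 denotes the concentration required for 50% inhibition of growth.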 Active and inactive are the calls of the source. No stated cut-off is given here; in the data, active = GI50 up to about 1.1 µM and inactive = higher.

Experiments:
Assay in all cases: NCI anticancer screen, dose series, 48 h
MOLT-4 = test system: MOLT-4
IGROV-1 = test system: IGROV-1
SW-620 = test system: SW-620
OVCAR-4 = test system: OVCAR-4
HOP-62 = test system: HOP-62
CCRF-CEM = test system: CCRF-CEM
MDA-MB-435 = test system: MDA-MB-435
HL-60 = test system: HL-60
HCT-15 = test system: HCT-15
A549 = test system: A549
LOX IMVI = test system: LOX IMVI
M14 = test system: M14
UO-31 = test system: UO-31
MDA-MB-231 = test system: MDA-MB-231
Malme-3M = test system: Malme-3M
BT-549 = test system: BT-549
UACC-257 = test system: UACC-257
MCF7 = test system: MCF7
PC-3 = test system: PC-3
U-251 = test system: U-251
SF-295 = test system: SF-295
SK-MEL-2 = test system: SK-MEL-2
CAKI-1 = test system: CAKI-1
SNB-75 = test system: SNB-75
SN12C = test system: SN12C
MDA-N = test system: MDA-N
OVCAR-8 = test system: OVCAR-8
ACHN = test system: ACHN
SF-539 = test system: SF-539
OVCAR-3 = test system: OVCAR-3
HT-29 = test system: HT-29
DU-145 = test system: DU-145
SK-OV-3 = test system: SK-OV-3
HCC 2998 = test system: HCC 2998
SR = test system: SR
NCI-H23 = test system: NCI-H23
K562 = test system: K562
RPMI-8226 = test system: RPMI-8226
OVCAR-5 = test system: OVCAR-5
RXF 393 = test system: RXF 393
NCI-H460 = test system: NCI-H460
TK-10 = test system: TK-10
COLO 205 = test system: COLO 205
SK-MEL-28 = test system: SK-MEL-28
A498 = test system: A498
UACC-62 = test system: UACC-62
NCI-H226 = test system: NCI-H226
SNB-19 = test system: SNB-19
T47D = test system: T47D
HOP-92 = test system: HOP-92
NCI-H522 = test system: NCI-H522
786-0 = test system: 786-0
Hs-578T = test system: Hs-578T
NCI/ADR-RES = test system: NCI/ADR-RES
KM12 = test system: KM12
SK-MEL-5 = test system: SK-MEL-5
SF-268 = test system: SF-268
HCT-116 = test system: HCT-116
EKVX = test system: EKVX

For Cc1ccc(S(=O)(=O)N/N=C/C(=C/c2ccc(Cl)cc2)CC(/C=N/NS(=O)(=O)c2ccc(C)cc2)=C\c2ccc(Cl)cc2)cc1, the GI50 (MOLT-4) was 2.55 µM (inactive), the GI50 (IGROV-1) was 5.81 µM (inactive) and the GI50 (SW-620) was 4.47 µM (inactive). The GI50 (OVCAR-4) was 5.42 µM (inactive), the GI50 (HOP-62) was 19.5 µM (inactive) and the GI50 (CCRF-CEM) was 2.98 µM (inactive). The GI50 (MDA-MB-435) was 3.72 µM (inactive), the GI50 (HL-60) was 3.59 µM (inactive) and the GI50 (HCT-15) was 3.58 µM. The GI50 (A549) was 17.1 µM (inactive), the GI50 (LOX IMVI) was 2.1 µM (inactive) and the GI50 (M14) was 10.8 µM (inactive). The GI50 (UO-31) was 5.62 µM (inactive), the GI50 (MDA-MB-231) was 10.2 µM (inactive) and the GI50 (Malme-3M) was 8.2 µM (inactive). The GI50 (BT-549) was 6.15 µM (inactive), the GI50 (UACC-257) was 11.4 µM (inactive) and the GI50 (MCF7) was 2.86 µM (inactive). For the same molecule, the GI50 (PC-3) was 4.02 µM (inactive), the GI50 (U-251) was 4.78 µM (inactive) and the GI50 (SF-295) was 14 µM (inactive). The GI50 (SK-MEL-2) was 7.76 µM (inactive), the GI50 (CAKI-1) was 5.37 µM (inactive) and the GI50 (SNB-75) was 3.96 µM (inactive). The GI50 (SN12C) was 7.08 µM (inactive), the GI50 (MDA-N) was 4.45 µM (inactive) and the GI50 (OVCAR-8) was 2.63 µM (inactive). For the same molecule, the GI50 (ACHN) was 6.04 µM (inactive), the GI50 (SF-539) was 12.1 µM (inactive) and the GI50 (OVCAR-3) was 3.07 µM (inactive). The GI50 (HT-29) was 5.51 µM (inactive), the GI50 (DU-145) was 25.8 µM (inactive) and the GI50 (SK-OV-3) was 44.4 µM (inactive). The GI50 (HCC 2998) was 3.21 µM (inactive), the GI50 (SR) was 2.61 µM (inactive) and the GI50 (NCI-H23) was 6.93 µM (inactive). The GI50 (K562) was 2.86 µM (inactive), the GI50 (RPMI-8226) was 2.64 µM (inactive) and the GI50 (OVCAR-5) was 15.3 µM (inactive). The GI50 (RXF 393) was 3.56 µM (inactive), the GI50 (NCI-H460) was 5.52 µM (inactive) and the GI50 (TK-10) was 17.9 µM (inactive). For the same molecule, the GI50 (COLO 205) was 5 µM (inactive), the GI50 (SK-MEL-28) was 5.52 µM (inactive) and the GI50 (A498) was 4.94 µM (inactive). For the same molecule, the GI50 (UACC-62) was 5.08 µM (inactive), the GI50 (NCI-H226) was 15 µM (inactive) and the GI50 (SNB-19) was 8.77 µM (inactive). For the same molecule, the GI50 (T47D) was 4.78 µM (inactive), the GI50 (HOP-92) was 2.23 µM (inactive) and the GI50 (NCI-H522) was 4.03 µM (inactive). For the same molecule, the GI50 (786-0) was 2.19 µM (inactive), the GI50 (Hs-578T) was 3.68 µM (inactive) and the GI50 (NCI/ADR-RES) was 7.36 µM (inactive). The GI50 (KM12) was 7.87 µM (inactive), the GI50 (SK-MEL-5) was 4.03 µM (inactive) and the GI50 (SF-268) was 5.06 µM (inactive). The GI50 (HCT-116) was 4.6 µM (inactive) and the GI50 (EKVX) was 13 µM (inactive).
For Cc1nc2ccccc2n1Cc1ccc(NC(=S)Nc2ccccc2)cc1, the GI50 (MOLT-4) was 23.3 µM (inactive), the GI50 (IGROV-1) was > 100 µM (inactive) and the GI50 (SW-620) was 45 µM (inactive). The GI50 (OVCAR-4) was 28.6 µM (inactive), the GI50 (HOP-62) was > 100 µM (inactive) and the GI50 (CCRF-CEM) was 36.8 µM (inactive). For the same molecule, the GI50 (MDA-MB-435) was 46.9 µM (inactive), the GI50 (HL-60) was 24.8 µM (inactive) and the GI50 (HCT-15) was 72.8 µM. For the same molecule, the GI50 (A549) was 80 µM (inactive), the GI50 (LOX IMVI) was 70.6 µM (inactive) and the GI50 (M14) was 56.1 µM (inactive). For the same molecule, the GI50 (UO-31) was > 100 µM (inactive), the GI50 (MDA-MB-231) was 36.4 µM (inactive) and the GI50 (Malme-3M) was 30.4 µM (inactive). For the same molecule, the GI50 (BT-549) was 61.1 µM (inactive), the GI50 (UACC-257) was 32.7 µM (inactive) and the GI50 (MCF7) was 27.4 µM (inactive). For the same molecule, the GI50 (PC-3) was 75.7 µM (inactive), the GI50 (U-251) was 82.6 µM (inactive) and the GI50 (SF-295) was 34.3 µM (inactive). The GI50 (SK-MEL-2) was 73.8 µM (inactive), the GI50 (CAKI-1) was 77.4 µM (inactive) and the GI50 (SNB-75) was 63.8 µM (inactive). The GI50 (SN12C) was 76.4 µM (inactive), the GI50 (MDA-N) was 31 µM (inactive) and the GI50 (OVCAR-8) was 60.1 µM (inactive). For the same molecule, the GI50 (ACHN) was 35.2 µM (inactive), the GI50 (SF-539) was 23.8 µM (inactive) and the GI50 (OVCAR-3) was 27.9 µM (inactive). For the same molecule, the GI50 (HT-29) was 32.8 µM (inactive), the GI50 (DU-145) was 73.8 µM (inactive) and the GI50 (SK-OV-3) was > 100 µM (inactive). For the same molecule, the GI50 (HCC 2998) was 92 µM (inactive), the GI50 (SR) was 20.2 µM (inactive) and the GI50 (NCI-H23) was 83.9 µM (inactive). For the same molecule, the GI50 (K562) was 33.4 µM (inactive), the GI50 (RPMI-8226) was 50 µM (inactive) and the GI50 (OVCAR-5) was 37.1 µM (inactive). For the same molecule, the GI50 (RXF 393) was 60 µM (inactive), the GI50 (NCI-H460) was 92.3 µM (inactive) and the GI50 (TK-10) was > 100 µM (inactive). For the same molecule, the GI50 (COLO 205) was 34.8 µM (inactive), the GI50 (SK-MEL-28) was 66.7 µM (inactive) and the GI50 (A498) was 28.7 µM (inactive). For the same molecule, the GI50 (UACC-62) was 58.7 µM (inactive), the GI50 (NCI-H226) was 82.4 µM (inactive) and the GI50 (SNB-19) was > 100 µM (inactive). The GI50 (T47D) was 18.6 µM (inactive), the GI50 (HOP-92) was 61.9 µM (inactive) and the GI50 (NCI-H522) was 21.9 µM (inactive). The GI50 (786-0) was > 100 µM (inactive), the GI50 (Hs-578T) was > 100 µM (inactive) and the GI50 (NCI/ADR-RES) was 72.3 µM (inactive). The GI50 (KM12) was 54.6 µM (inactive), the GI50 (SK-MEL-5) was 12.3 µM (inactive) and the GI50 (SF-268) was 91 µM (inactive). For the same molecule, the GI50 (HCT-116) was 31.6 µM (inactive) and the GI50 (EKVX) was 21.1 µM (inactive).
